{"source": "patent US20220267269A1", "about": "“COMPOUNDS FOR THE MODULATION OF PROPROTEIN CONVERTASE SUBTILISIN/KEXIN TYPE 9 (PCSK9)” (SRX Cardio, LLC, priority 2019, published 2022)", "key": {"[1]": {"test": "In vivo PK in mice (IV and PO)", "conditions": "male, C57BL/6, mouse, plasma", "procedure": "(§1) A representative compound (Compound 1041) was tested for oral bioavailability and efficacy in mice. Male C57BL/6 mice were purchased from Taconic Biosciences (Rensselaer, New York) and housed under standard conditions with the exception of being provided a high fat diet (#TD.90221, Envigo, Madison, Wis.) and water ad libitum. Following 4 weeks of diet acclimation the animals were then dosed with compound or vehicle as control specimens. Compound readily dissolved at 1.5 mg/ml in a 1% Tween-80 aqueous solution with 10-15 minutes sonication. This solution was used at the 1.5 mg/ml concentration for oral (PO) dosing or further diluted with sterile saline for intravenous (IV) dosing.\nTest animals received a single dose at 3 mg/kg by IV or 15 mg/kg by PO while control animals received an equal volume of vehicle control by IV or PO, respectively. Plasma samples were collected at 0.25, […], 1, 2, 3, 6, 8, 24, and 48 hours while liver specimens were collected at 8, 24, and 48 hours and drug concentration were measured by LC-MS/MS per standard protocols.\nIn brief, blood was immediately centrifuged, and the resulting plasma was frozen and stored at −80° C. until analysis. […] Compound concentrations were determined by a liquid chromatography-mass tandem spectrometry (LC-MS/MS) per routine method (Quintara Discovery, Hayward, Calif.) following the standard protocol. […]"}, "[2]": {"test": "Dissolution in dosing vehicle", "format": "physicochemical", "conditions": "1% Tween-80 aqueous solution, 10-15 minutes sonication", "procedure": "as §1"}, "Male C57BL/6 mice": {"test_system": "Male C57BL/6 mice", "test": "Liver panel in high fat diet mice", "format": "in vivo", "procedure": "as §1\nTo assess animal health following compound exposure, a liver panel (Test Code #60405) was tested by IDEXX BioAnalytics (North Grafton, Mass.). […] Also of note, AST and ALT levels in the liver panel were elevated in the PO vehicle, which is attributed to the high fat diet used in the study (Envigo, #TD.90221)."}, "PCSK9": {"target": "T1, PCSK9 (Homo sapiens, UniProt Q8NBP7)", "T1 construct": "purchased Cayman Chemical 20631", "T1 sequence (Q8NBP7 153-692)": "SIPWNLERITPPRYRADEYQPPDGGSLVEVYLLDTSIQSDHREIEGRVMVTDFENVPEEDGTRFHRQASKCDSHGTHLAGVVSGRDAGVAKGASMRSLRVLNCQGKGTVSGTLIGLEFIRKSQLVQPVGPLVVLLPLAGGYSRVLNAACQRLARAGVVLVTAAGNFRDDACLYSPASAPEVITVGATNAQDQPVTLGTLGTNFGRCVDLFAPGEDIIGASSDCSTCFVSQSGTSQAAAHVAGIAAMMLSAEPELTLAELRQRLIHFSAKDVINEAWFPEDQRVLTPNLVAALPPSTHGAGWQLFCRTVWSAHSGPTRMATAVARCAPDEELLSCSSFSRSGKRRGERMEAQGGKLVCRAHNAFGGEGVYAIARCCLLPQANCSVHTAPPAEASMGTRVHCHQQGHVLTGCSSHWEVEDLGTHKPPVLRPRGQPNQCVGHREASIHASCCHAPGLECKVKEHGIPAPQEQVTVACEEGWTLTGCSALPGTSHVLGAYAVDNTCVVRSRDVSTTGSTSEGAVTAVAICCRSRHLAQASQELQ", "test": "Fluorescent-LDL uptake analysis by flow cytometric analysis", "format": "cell-based", "procedure": "Cells, such as HuH7, FL83B, or a cell line transfected with a short-hairpin PCSK9 knockdown sequence such as HuH7/shPCSK9 or FL83B/shPCSK9 were plated and cultured at 37° C. for 12-24 h. Culture media was removed and replaced with fresh lipoprotein-depleted culture media supplemented with 5 μg/mL of fluorescently labeled LDL or lipoprotein-depleted culture media supplemented with 5 μg/mL of fluorescently labeled LDL plus a concentration of recombinant PCSK9 (for example 5 μg/mL recombinant PCSK9; Cayman Chemical, Cat. #20631). Examples of fluorescently labeled LDL include: DiI-LDL (Kalen Biomedical), or LDL conjugated to Dylight (e.g., LDL-Dylight 488, or LDL-Dylight 550 (Cayman Chemical, Cat. #10011229)). Lipoprotein-depleted culture media was composed of DMEM (Invitrogen) with 10% lipoprotein-depleted fetal bovine serum (Kalen Biomedical) and supplemented with penicillin-streptomycin (Life Technologies). Cells were dosed with small molecule test compounds at doses ranging from 0 nM to 100 μM, following a protocol adapted from Benjannet et al., “Effects of the prosegment and pH on the activity of PCSK9: evidence for additional processing events” J Biol Chem. 285(52):40965-40978 (2010), which is incorporated by reference in its entirety.\nFollowing an incubation period of specified length, such as 16 hours, the lipoprotein-depleted media was removed and cells rinsed three times with a rinse solution (Dulbecco's phosphate buffered saline (D-PBS, Life Technologies), supplemented with 0.5% bovine serum albumin (BSA, Sigma) and 1 g/L glucose (Sigma)). The fluid was then removed, and cells are released from the plate using TrypLE Express (Life Technologies) per manufacturer's recommended procedures, such as incubation for 5-10 minutes at 37° C. The TyrpLE-Cell suspension was then transferred to 15 mL conical tubes, volume was increased to 2 mL with D-PBS supplemented with 0.5% BSA, and […], and the tubes were centrifuged at 250×gravity for 10 minutes. Following centrifugation, the supernatant was aspirated and the cell pellet was resuspended in 300 μL PBS and counterstained with 4′,6-diamidino-2-phenylindole (DAPI, Cayman Chemical) as a cell viability marker, other cell viability markers such as 7-aminoactinomycin D (7AAD, Life Technologies) have also been described in the art.\nCells were analyzed by for both 7AAD (dead cells) and fluorescent LDL in live cells using a flow cytometer per the manufacturer's operating manual. Cells incubated with small molecule compounds that are inhibitors of PCSK9 will be expected to show increased amounts of LDL fluorescence, relative to control (no compound) specimens, and cells incubated with small molecule compounds that are activators of PCSK9 will be expected to show decreased amounts of LDL fluorescence relative to control (no compound) specimens.\nThe LDL-uptake EC50 is provided as follows: +++: <0.5 μM; ++: 0.5-1μM; +: >1 μM."}, "[3]": {"conditions": "daily 15 mg/kg PO, 72-hour group, versus vehicle control"}}, "data": [{"smiles": "Cc1cc(-c2ccc(F)cc2)ccc1C1CCCN(C2CCCC2)C1", "note": "(stereo not shown) [Compound 1,041, 1-cyclopentyl-3-(4′-fluoro-3-methyl-[1,1′-biphenyl]-4-yl)piperidine]", "values": [{"measurement": "half-life", "setting": "[1]; IV 3 mg/kg", "result": 4.8, "unit": "h"}, {"measurement": "half-life", "setting": "[1]; PO 15 mg/kg", "result": 9.8, "unit": "h"}, {"measurement": "dissolved concentration", "setting": "[2]", "result": "≥ 1.5", "unit": "mg/mL"}, {"measurement": "reduction in ALT levels", "setting": "Male C57BL/6 mice; [3]", "result": 77.7, "unit": "%"}, {"measurement": "reduction in AST levels", "setting": "Male C57BL/6 mice; [3]", "result": 72.1, "unit": "%"}, {"measurement": "liver panel toxicity", "setting": "Male C57BL/6 mice; three daily 15 mg/kg PO doses, 72 hours, versus PO vehicle", "result": "no overt toxicity"}, {"measurement": "EC50", "setting": "PCSK9", "result": "500 to 1000", "unit": "nM"}]}]}
